Source: patent publication US20030225123A1, “Antihypertensive agents and use” (priority 2003, published 2003)
Where “and” joins values, the source holds several entries; their conditions need not be identical. Equal values may be shown once.

Key:
[1] = system: spontaneously hypertensive rats (SHR); assay: Antihypertensive effect (MABP by radiotelemetry) of CI-1027, quinapril and their combination in SHR (Example 1); assay type: in vivo, rat
Protocol: The antihypertensive effects of the carboxyalkylether compound of Formula III (CI-1027), alone and in combination with an antihypertensive agent such as quinapril (CI-906), were evaluated in rats according to the following protocol. Male spontaneously hypertensive rats (SHR, 15-20 weeks old, Charles River Laboratories, Wilmington, Mass.) were prepared with indwelling aortic catheters and radiotransmitters (Data Sciences International, Saint Paul, Minn.). The radiotransmitters provided continuous measurement of aortic blood pressure waveform. From the aortic blood pressure waveform a Ponemah (Gould Instruments Inc, Valley View, Ohio) computer provided mean arterial blood pressure (MABP) and heart rate values continuously as one-minute averages. One-minute data was then summarized at 15-minute intervals using Excel (Microsoft Corporation, Redmond, Wash.) spreadsheets. Animals were allowed food and water ad libitum. To allow for recovery following surgery, rats were not dosed for a minimum of 7 days. Day 0 predose blood pressures were obtained by averaging eight 15-minute MABP measurements made 2 hours before dosing. To obtain the peak response to treatment (Days 0, 12, 16, 19, and 22), the 15-minute MABP measurements in the interval between 2 and 4 hours post-dose were averaged. Test compounds were given in a vehicle that contained 96% water, 3% carbomethocellulose (Sigma Chemical, Saint Louis, Mo.) and 1% tween […] (polyoxyethylenesorbitan monooleate, Sigma Chemical). CI-1027 and quinapril monotherapy were administered at 8:30 AM daily by oral gavage in a volume of 2 mL/kg. The combination of CI-1027 and quinapril was given as a single gavage in a volume of 2 mL/kg. The experiment was carried out over 22 days in 4 groups of animals. Group I served as a control and received 2 mL/kg/day of vehicle for 22 consecutive days. Group II, used to determine the antihypertensive response to quinapril monotherapy, was given vehicle for the first 12 to 13 consecutive days. Then on Day 13 to 14 quinapril was added at a dose of 0.3 mg/kg/day for 3 to 4 consecutive days; the dose was then increased to 1 mg/kg/day for the next 3 days, and on the final 3 days, 3 mg/kg/day was administered. To determine the response to CI-1027 monotherapy, Groups III and IV received 12-day treatment with CI-1027 monotherapy at doses of 30 and 100 mg/kg/day, respectively. To determine the antihypertensive response to the combination therapy quinapril, was added to the ongoing CI-1027 treatment (Day 13-14) using the rising dose protocol described for Group II (quinapril monotherapy). [table]

SHR = assay: Antihypertensive effect (MABP by radiotelemetry) of CI-1027, amlodipine and their combination in SHR (Example 2); assay type: in vivo, rat
Protocol: The general procedure of Example 1 was followed to evaluate the antihypertensive efficacy of the carboxyalkylether CI-1027 alone and in combination with the calcium channel blocker amlodipine.
Male SHR (15-20 weeks old, Charles River Laboratories) were prepared with indwelling aortic catheters and radiotransmitters for continuous measurement of arterial blood pressure and heart rate. Animals were allowed food and water ad libitum. Before dosing all rats were given a minimum of 7 days for recovery from surgery.
The experiment was carried out over 22 days in 3 groups of SHR. Group I served as a control and received 2 mL/kg/day of vehicle (same as in Example 1) for 22 consecutive days. Group II, used to determined the antihypertensive response to amlodipine monotherapy, was given vehicle for the first 13 consecutive days. Then on Day 14, amlodipine was added at a dose of 0.3 mg/kg/day for 3 consecutive days. The dose was then increased to 1 mg/kg/day for the next 3 days, and on the final 3 days, 3 mg/kg/day was given. To determine the response to CI-1027 monotherapy, Group III received a 13-day treatment with CI-1027 monotherapy at a dose of 30 mg/kg/day. The antihypertensive response to the combination therapy was determined by the addition of amlodipine to ongoing CI-1027 treatment on Day 14.
Drugs were suspended or dissolved in vehicle that contains 96% water, 3% carboxymethocellulose, and 1% tween 88. Compounds were given at 9 AM daily by oral gavage in a volume of 2 mL/kg. The combination of CI-1027 and amlodipine was given as a single gavage in a volume of 2 mL/kg.

CC(C)(CCCCOCCCCC(C)(C)C(=O)O)C(=O)O [CI-1027]
Peak MABP ([1]; CI-1027 30 mg/kg/day oral, Day 0, 2-4 h postdose): 145 ± 4 mm Hg | Peak MABP ([1]; CI-1027 30 mg/kg/day oral, Day 12, 2-4 h postdose, 30 mg/kg/day): 131 mm Hg and 131 ± 3 mm Hg | Peak MABP ([1]; CI-1027 100 mg/kg/day oral, Day 0, 2-4 h postdose): 141 ± 4 mm Hg | Antihypertensive activity of monotherapy ([1]; CI-1027 monotherapy 30 and 100 mg/kg/day, 12 days): modest antihypertensive activity | Peak MABP (SHR; CI-1027 30 mg/kg/day oral, Day 0, 4-6 h postdose): 129 ± 4 mm Hg | Peak MABP (SHR; CI-1027 30 mg/kg/day oral, Day 13, 4-6 h postdose, 30 mg/kg/day): 120 mm Hg and 120 ± 8 mm Hg | Effect of monotherapy on blood pressure (SHR; CI-1027 monotherapy 30 mg/kg/day, 13 days): lowers blood pressure in the SHR

CCOC(=O)C1=C(COCCN)NC(C)=C(C(=O)OC)C1c1ccccc1Cl (stereo not drawn) [Amlodipine, amlodipine]
Peak MABP (SHR; Amlodipine 0.3 mg/kg/day oral, Day 16, 4-6 h postdose): 140 ± 6 mm Hg | Peak MABP (SHR; Amlodipine 1 mg/kg/day oral, Day 19, 4-6 h postdose): 131 ± 5 mm Hg | Peak MABP (SHR; Amlodipine 3 mg/kg/day oral, Day 22, 4-6 h postdose): 114 mm Hg and 114 ± 5 mm Hg | Threshold antihypertensive dose (SHR; amlodipine monotherapy (Group II), oral): 1 mg/kg/day

CCOC(=O)[C@H](CCc1ccccc1)N[C@@H](C)C(=O)N1Cc2ccccc2C[C@H]1C(=O)O [Quinapril, quinapril]
Peak MABP ([1]; Quinapril 0.3 mg/kg/day oral, Day 16, 2-4 h postdose): 122 ± 5 mm Hg | Peak MABP ([1]; Quinapril 1 mg/kg/day oral, Day 19, 2-4 h postdose): 121 ± 4 mm Hg | Peak MABP ([1]; Quinapril 3 mg/kg/day oral, Day 22, 2-4 h postdose): 117 mm Hg and 117 ± 4 mm Hg | Antihypertensive response at 3 mg/kg/day greater than at 0.3 mg/kg/day ([1]; Quinapril monotherapy, rising dose): 5 mm Hg
